Data as given in PubChem BioAssay (NCI).
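How tested: cells in 96-well plates exposed to compound for 48 hours at five concentrations. TGI marks complete inhibition of growth.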

Key:
Assay in all cases: NCI tumour cell line growth inhibition, 48 h
[1] = system: 786-0 renal
[2] = system: A498 renal
[3] = system: A549 NSCLC
[4] = system: ACHN renal
[5] = system: BT-549 breast
[6] = system: CAKI-1 renal
[7] = system: CCRF-CEM leukemia
[8] = system: COLO 205 colon
[9] = system: DU-145 prostate
[10] = system: EKVX NSCLC
[11] = system: HCC-2998 colon
[12] = system: HCT-116 colon
[13] = system: HCT-15 colon
[14] = system: HL-60(TB) leukemia
[15] = system: HOP-62 NSCLC
[16] = system: HOP-92 NSCLC
[17] = system: HT29 colon
[18] = system: IGROV1 ovarian
[19] = system: K-562 leukemia
[20] = system: KM12 colon
[21] = system: LOX IMVI melanoma
[22] = system: M14 melanoma
[23] = system: MCF7 breast
[24] = system: MDA-MB-231 breast
[25] = system: MDA-MB-435
[26] = system: MDA-N
[27] = system: NCI-H226 lung
[28] = system: NCI-H23 lung
[29] = system: NCI-H460 lung
[30] = system: NCI-H522 lung
[31] = system: NCI/ADR-RES ovarian
[32] = system: OVCAR-3 ovarian
[33] = system: OVCAR-4 ovarian
[34] = system: OVCAR-5 ovarian
[35] = system: OVCAR-8 ovarian
[36] = system: PC-3 prostate
[37] = system: RPMI-8226 leukemia
[38] = system: SF-268 CNS
[39] = system: SF-295 CNS
[40] = system: SF-539 CNS
[41] = system: SK-MEL-2 melanoma
[42] = system: SK-MEL-28 melanoma
[43] = system: SK-MEL-5 melanoma
[44] = system: SK-OV-3 ovarian
[45] = system: SN12C renal
[46] = system: SNB-19 CNS
[47] = system: SNB-75 CNS
[48] = system: SR leukemia
[49] = system: SW-620 colon
[50] = system: T-47D breast
[51] = system: TK-10 renal
[52] = system: U251 CNS
[53] = system: UACC-257 melanoma
[54] = system: UACC-62 melanoma
[55] = system: UO-31 renal
[56] = system: MALME-3M melanoma
[57] = system: MOLT-4 leukemia
[58] = system: RXF 393 renal

With C[Si](C)(C)CNC(=O)OCc1ccccc1 the TGI [1] was over 100 µM, the TGI [2] was over 100 µM and the TGI [3] was over 100 µM. It also gave a TGI [4] of over 100 µM, a TGI [5] of over 100 µM and a TGI [6] of over 100 µM. For the same molecule, the TGI [7] was over 100 µM, the TGI [8] was over 100 µM and the TGI [9] was over 100 µM. The TGI [10] was over 100 µM, the TGI [11] was over 100 µM and the TGI [12] was over 100 µM. For the same molecule, the TGI [13] was over 100 µM, the TGI [14] was over 100 µM and the TGI [15] was over 100 µM. The TGI [16] was over 100 µM, the TGI [17] was over 100 µM and the TGI [18] was over 100 µM. For the same molecule, the TGI [19] was over 100 µM, the TGI [20] was over 100 µM and the TGI [21] was over 100 µM. The TGI [22] was over 100 µM, the TGI [23] was over 100 µM and the TGI [24] was over 100 µM. It also gave a TGI [25] of over 100 µM, a TGI [26] of over 100 µM and a TGI [27] of over 100 µM. For the same molecule, the TGI [28] was over 100 µM, the TGI [29] was over 100 µM and the TGI [30] was over 100 µM. It also gave a TGI [31] of over 100 µM, a TGI [32] of over 100 µM and a TGI [33] of over 100 µM. For the same molecule, the TGI [34] was over 100 µM, the TGI [35] was over 100 µM and the TGI [36] was over 100 µM. It also gave a TGI [37] of over 100 µM, a TGI [38] of over 100 µM and a TGI [39] of over 100 µM. For the same molecule, the TGI [40] was over 100 µM, the TGI [41] was over 100 µM and the TGI [42] was over 100 µM. The TGI [43] was over 100 µM, the TGI [44] was over 100 µM and the TGI [45] was over 100 µM. The TGI [46] was over 100 µM, the TGI [47] was over 100 µM and the TGI [48] was over 100 µM. The TGI [49] was over 100 µM, the TGI [50] was 72.4 µM and the TGI [51] was over 100 µM. The TGI [52] was over 100 µM, the TGI [53] was over 100 µM and the TGI [54] was over 100 µM. For the same molecule, the TGI [55] was over 100 µM.

COC(=O)C1=CC(=O)OC1(OO)c1ccc(Br)cc1 (stereo not drawn) gave a TGI [1] of over 100 µM, a TGI [3] of over 100 µM and a TGI [4] of over 100 µM. For the same molecule, the TGI [5] was over 100 µM, the TGI [6] was over 100 µM and the TGI [7] was over 100 µM. The TGI [8] was over 100 µM, the TGI [9] was over 100 µM and the TGI [10] was over 100 µM. For the same molecule, the TGI [11] was over 100 µM, the TGI [12] was over 100 µM and the TGI [13] was over 100 µM. It also gave a TGI [14] of over 100 µM, a TGI [16] of over 100 µM and a TGI [17] of over 100 µM. The TGI [18] was over 100 µM, the TGI [19] was over 100 µM and the TGI [20] was over 100 µM. The TGI [21] was over 100 µM, the TGI [22] was over 100 µM and the TGI [56] was over 100 µM. For the same molecule, the TGI [23] was over 100 µM, the TGI [24] was over 100 µM and the TGI [25] was over 100 µM. It also gave a TGI [26] of over 100 µM, a TGI [57] of over 100 µM and a TGI [27] of over 100 µM. For the same molecule, the TGI [28] was over 100 µM, the TGI [29] was over 100 µM and the TGI [30] was over 100 µM. The TGI [31] was over 100 µM, the TGI [32] was over 100 µM and the TGI [33] was over 100 µM. It also gave a TGI [34] of over 100 µM, a TGI [35] of over 100 µM and a TGI [36] of over 100 µM. It also gave a TGI [58] of over 100 µM, a TGI [39] of over 100 µM and a TGI [40] of over 100 µM. For the same molecule, the TGI [41] was over 100 µM, the TGI [42] was over 100 µM and the TGI [43] was over 100 µM. The TGI [44] was over 100 µM, the TGI [45] was over 100 µM and the TGI [46] was over 100 µM. For the same molecule, the TGI [47] was over 100 µM, the TGI [48] was over 100 µM and the TGI [49] was over 100 µM. The TGI [50] was over 100 µM, the TGI [51] was over 100 µM and the TGI [52] was over 100 µM. The TGI [53] was over 100 µM, the TGI [54] was over 100 µM and the TGI [55] was over 100 µM.

CC1(C)COC(c2ccccc2-c2ccccc2)=N1 gave a TGI [1] of over 100 µM, a TGI [2] of over 100 µM and a TGI [3] of over 100 µM. For the same molecule, the TGI [4] was over 100 µM, the TGI [5] was over 100 µM and the TGI [6] was over 100 µM. The TGI [7] was over 100 µM, the TGI [8] was over 100 µM and the TGI [9] was over 100 µM. The TGI [10] was over 100 µM, the TGI [11] was over 100 µM and the TGI [12] was over 100 µM. It also gave a TGI [13] of over 100 µM, a TGI [14] of over 100 µM and a TGI [15] of over 100 µM. For the same molecule, the TGI [16] was over 100 µM, the TGI [17] was over 100 µM and the TGI [18] was over 100 µM. The TGI [19] was over 100 µM, the TGI [20] was over 100 µM and the TGI [22] was over 100 µM. For the same molecule, the TGI [56] was over 100 µM, the TGI [23] was over 100 µM and the TGI [24] was over 100 µM. For the same molecule, the TGI [25] was over 100 µM, the TGI [26] was over 100 µM and the TGI [57] was over 100 µM. It also gave a TGI [27] of over 100 µM, a TGI [28] of over 100 µM and a TGI [29] of over 100 µM. It also gave a TGI [30] of over 100 µM, a TGI [31] of over 100 µM and a TGI [32] of over 100 µM. It also gave a TGI [33] of over 100 µM, a TGI [34] of over 100 µM and a TGI [35] of over 100 µM. It also gave a TGI [36] of over 100 µM, a TGI [37] of over 100 µM and a TGI [58] of over 100 µM. For the same molecule, the TGI [38] was over 100 µM, the TGI [39] was over 100 µM and the TGI [40] was over 100 µM. The TGI [41] was over 100 µM, the TGI [42] was over 100 µM and the TGI [44] was over 100 µM. For the same molecule, the TGI [45] was over 100 µM, the TGI [46] was over 100 µM and the TGI [48] was over 100 µM. It also gave a TGI [49] of over 100 µM, a TGI [50] of over 100 µM and a TGI [52] of over 100 µM. It also gave a TGI [53] of over 100 µM, a TGI [54] of over 100 µM and a TGI [55] of over 100 µM.
